# Patent US20180237362A1, “NOVEL POLYGODIAL ANALOGS FOR THE TREATMENT OF CANCER AND OTHER PROLIFERATIVE DISEASES” (THE BOARD OF REGENTS OF THE UNIVERSITY OF TAXAS SYSTEM, priority 2015, published 2018)
# How the values were obtained:
# [1] = molecular target: T1, vanilloid site of TRPV1 receptor from rats spinal cord membranes (Rattus norvegicus, UniProt O35433); test: [3H]-resiniferatoxin binding assay; settings: 2 nM [3H]-RTX
# T1 construct: from tissue; host or cells: rat spinal cord membranes
# Protocol: To evaluate the possible affinity of different analogues to the vanilloid site of TRPV1, a [^3H]-resiniferatoxin ([^3H]-RTX) binding assay was performed as previously described (Galli et al. 2004 and Lee et al., 2006). Briefly, rats spinal cord were homogenized in buffer A (pH 7.4, 5 mM KCl, 5.8 mM NaCl, 2 mM MgCl2, 0.75 mM CaCl2, 137 mM sucrose, and 10 mM HEPES) and centrifuged for 10 minutes at 1000 g at 4° C. and the supernatant was further centrifuged for 30 min at 35,000 g at 4° C. The resulting pellets were than resuspended in buffer A and frozen until assayed. The binding reaction was performed in a final volume of 500 μL, containing buffer A (plus 0.25 mg/mL bovine serum albumin, BSA), membranes (0.5 mg/mL), and 2 nM [^3H]-RTX in the presence or absence of analogues of 1 (10 μM). For the measurement of the nonspecific binding, 100 μM nonradioactive RTX were included used. The reaction was started by incubating tubes at 37° C. during 60 minutes, and stopped by transferring the tubes to ice bath and adding 100 μg of bovine α1-acid glycoprotein (to reduce nonspecific binding). […] The pellet was used to quantify the scintillation counting. The specific binding was calculated as the difference of the total and nonspecific binding and the results were measured as % of specific binding.
# OSCC cell line HSC3 = test: Cell viability (Cell Titer 96 Aqueous), HSC3; type: cell-based, human; settings: for reversal of cytotoxicity by N-acetyl-cysteine: 60 μM compound ± 10 mM NAC; for cancer cell viability, HSC3: 48 hours, potency order P10, polygodial, P3
# Text: (§1) Human cancer cell lines were obtained from the American Type Culture Collection (ATCC, Manassas, Va., USA), the European Collection of Cell Culture (ECACC, Salisbury, UK) and the Deutsche Sammlung von Mikroorganismen und Zellkulturen (DSMZ, Braunschweig, Germany). The OSCC cell lines, Cal27 and HSC3 are derived from human primary tongue tumor. Cal27 cells were obtained from the American Type Culture Collection (Rockville, Md.). HSC3 cells were provided by Dr. Brian Schmidt. HeLa cells (cervical cancer cell line) were obtained from ATCC. Cells were cultured in DMEM, containing 10% FBS and 1% penicillin-streptomycin media, at 37° C. in 5% CO2. All cells were authenticated by Genetic DNA Laboratories.
# (§2) The cytotoxicity of polygodial, P10, P3, and P27 in Cal27, HSC3, and HeLa cells was examined in vitro using a colorimetric assay, Cell Titer 96® Aqueous Non-Radioactive Cell Proliferation Assay. […] GraphPad Prism4 was used to perform statistical analysis.
# [2] = system: cervical cancer cell line HeLa; test: Cell viability (Cell Titer 96 Aqueous), HeLa; type: cell-based, human; settings: 48 hours; potency order P10, polygodial, P3
# Text: as §1, §2
# [3] = molecular target: T2, CHO cells that overexpress TRPV1 (CHO-TRPV1) (Homo sapiens, UniProt Q8NER1); test: Calcium imaging, CHO-TRPV1; type: cell-based; settings: for TRPV1 activation (calcium influx), CHO-TRPV1: polygodial 80 μM, P10 4 μM, P3 50 μM
# T2 construct: expressed in transfected cells; host or cells: CHO cells
# Protocol: CHO cells that overexpress TRPV1 (CHO-TRPV1) were treated with polygodial (80 μM), P10 ([…]), or P3 (50 μM) and calcium influx was measured. Cells were also pre-treated with the TRPV1 antagonist capsazepine (CPZ; 10 μM) to determine if calcium influx via TRPV1 was inhibited. 3 μM ionomycin was used as a positive control. Fluo-4 Direct Calcium Assay Kit and Sweptfield confocal with Nikon Ti were used to visualize calcium influx and the images were analyzed using ImageJ software.
# HeLa cells = test: Calcium imaging, HeLa; type: cell-based, human
# T2 sequence (Q8NER1 whole entry): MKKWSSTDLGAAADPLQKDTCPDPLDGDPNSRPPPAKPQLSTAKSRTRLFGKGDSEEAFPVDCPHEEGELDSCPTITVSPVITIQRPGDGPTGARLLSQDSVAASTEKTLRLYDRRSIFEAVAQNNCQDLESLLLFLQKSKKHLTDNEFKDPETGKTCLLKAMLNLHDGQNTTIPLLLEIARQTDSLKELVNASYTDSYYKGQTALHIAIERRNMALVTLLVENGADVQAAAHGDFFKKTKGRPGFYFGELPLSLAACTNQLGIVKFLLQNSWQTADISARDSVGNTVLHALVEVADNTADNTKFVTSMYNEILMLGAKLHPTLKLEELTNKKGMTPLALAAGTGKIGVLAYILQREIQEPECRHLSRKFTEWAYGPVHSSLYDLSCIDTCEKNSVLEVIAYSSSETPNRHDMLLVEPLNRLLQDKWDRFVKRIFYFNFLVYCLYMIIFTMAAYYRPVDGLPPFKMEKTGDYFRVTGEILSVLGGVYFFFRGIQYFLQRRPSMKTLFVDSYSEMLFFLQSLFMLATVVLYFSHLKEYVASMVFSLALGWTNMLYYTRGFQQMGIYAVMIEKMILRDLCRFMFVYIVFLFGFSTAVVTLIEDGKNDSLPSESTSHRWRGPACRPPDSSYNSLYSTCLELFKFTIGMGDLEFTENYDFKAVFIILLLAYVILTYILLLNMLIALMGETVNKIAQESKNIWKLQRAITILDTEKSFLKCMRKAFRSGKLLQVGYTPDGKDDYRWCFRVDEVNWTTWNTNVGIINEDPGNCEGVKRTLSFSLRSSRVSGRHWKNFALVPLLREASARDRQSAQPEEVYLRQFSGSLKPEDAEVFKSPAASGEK
# T1 sequence (O35433 whole entry): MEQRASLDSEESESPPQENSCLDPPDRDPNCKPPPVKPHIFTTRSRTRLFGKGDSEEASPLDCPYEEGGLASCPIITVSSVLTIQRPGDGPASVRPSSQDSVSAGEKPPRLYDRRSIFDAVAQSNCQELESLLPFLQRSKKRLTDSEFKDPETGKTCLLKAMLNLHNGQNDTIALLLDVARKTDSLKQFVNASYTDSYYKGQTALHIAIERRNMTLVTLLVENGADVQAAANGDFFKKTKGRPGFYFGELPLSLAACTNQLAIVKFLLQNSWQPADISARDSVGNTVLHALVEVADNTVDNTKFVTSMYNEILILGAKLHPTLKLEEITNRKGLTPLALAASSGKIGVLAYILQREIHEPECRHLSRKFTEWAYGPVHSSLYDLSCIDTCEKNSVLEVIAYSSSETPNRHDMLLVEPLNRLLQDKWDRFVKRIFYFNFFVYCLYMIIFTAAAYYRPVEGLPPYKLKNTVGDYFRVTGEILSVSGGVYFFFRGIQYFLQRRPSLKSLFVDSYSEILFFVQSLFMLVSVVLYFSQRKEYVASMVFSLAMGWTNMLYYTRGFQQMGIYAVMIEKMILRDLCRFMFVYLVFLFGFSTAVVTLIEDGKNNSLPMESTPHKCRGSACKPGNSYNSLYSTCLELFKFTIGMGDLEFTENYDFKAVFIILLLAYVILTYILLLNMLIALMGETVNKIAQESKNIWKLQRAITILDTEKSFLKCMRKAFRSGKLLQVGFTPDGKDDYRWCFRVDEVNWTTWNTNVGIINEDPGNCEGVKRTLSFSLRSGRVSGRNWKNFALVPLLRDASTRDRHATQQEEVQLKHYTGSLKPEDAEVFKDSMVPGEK
"reversal of calcium influx by capsazepine, CHO-TRPV1 ([3]; CPZ 10 μM pre-treatment)",Compound,inhibition at 10 µM ([1]; read-out: inhibition of specific binding of [3H]-resiniferatoxin (RTX)),reversal of cytotoxicity by N-acetyl-cysteine (OSCC cell line HSC3),"cancer cell viability, HSC3 (OSCC cell line HSC3)","cancer cell viability, HeLa [2]","TRPV1 activation (calcium influx), CHO-TRPV1 [3]","reversal of calcium influx by capsazepine, HeLa (HeLa cells; CPZ 10 μM)",inhibition of specific binding of [3H]-resiniferatoxin (RTX) ([1]; 10 μM),"calcium influx, HeLa (HeLa cells; polygodial 80 μM, P10 4 μM, P3 50 μM)"
reversible by CPZ pre-treatment,"CC1(C)CCC[C@]2(C)[C@@H](C=O)C(C=O)=CC[C@@H]12 [Compound 1, Polygodial]",76%,Cytotoxicity was reversible,reduced cancer cell viability in vitro,reduced cancer cell viability in vitro,activates TRPV1,CPZ did not fully reverse calcium influx,–,–
–,COC(=O)/C=C/C1=CC[C@H]2C(C)(C)CCC[C@]2(C)[C@H]1C=O [Compound 5],–,Cytotoxicity was reversible,reduced cancer cell viability in vitro,reduced cancer cell viability in vitro,do not,–,failed to show any activity,did not induce calcium influx
